Data taken from article PMC9945182 (Chemical Research in Toxicology, 2023).
Like-named read-outs stand apart in the source and are kept apart here.

Key:
Type in all cases: biochemical
FMO3 = target: T1, FMO3 (Homo sapiens, UniProt P31513); settings: 1 or 10 μM cannabinoid; nicotine 1 mM; FMO3 microsomes
T1 sequence (P31513 1-532): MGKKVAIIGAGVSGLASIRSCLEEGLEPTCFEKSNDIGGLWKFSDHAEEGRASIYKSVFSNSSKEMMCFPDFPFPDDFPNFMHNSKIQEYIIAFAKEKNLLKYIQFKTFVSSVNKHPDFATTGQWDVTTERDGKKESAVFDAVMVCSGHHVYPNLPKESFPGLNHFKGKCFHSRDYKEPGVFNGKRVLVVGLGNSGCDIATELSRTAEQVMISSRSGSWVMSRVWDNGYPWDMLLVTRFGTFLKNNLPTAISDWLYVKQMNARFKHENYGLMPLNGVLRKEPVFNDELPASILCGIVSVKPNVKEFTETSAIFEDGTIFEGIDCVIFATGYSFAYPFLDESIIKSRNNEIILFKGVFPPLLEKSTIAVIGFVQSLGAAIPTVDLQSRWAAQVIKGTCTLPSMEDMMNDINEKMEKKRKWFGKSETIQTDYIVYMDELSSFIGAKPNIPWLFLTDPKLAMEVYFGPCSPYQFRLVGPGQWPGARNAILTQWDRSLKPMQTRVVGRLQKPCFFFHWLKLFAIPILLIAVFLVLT

CYP2B6 = target: T2, CYP2B6 (Homo sapiens, UniProt P20813); settings: for inhibition of nornicotine formation: nicotine substrate, CYP2B6 microsomes
T2 sequence (P20813 1-491): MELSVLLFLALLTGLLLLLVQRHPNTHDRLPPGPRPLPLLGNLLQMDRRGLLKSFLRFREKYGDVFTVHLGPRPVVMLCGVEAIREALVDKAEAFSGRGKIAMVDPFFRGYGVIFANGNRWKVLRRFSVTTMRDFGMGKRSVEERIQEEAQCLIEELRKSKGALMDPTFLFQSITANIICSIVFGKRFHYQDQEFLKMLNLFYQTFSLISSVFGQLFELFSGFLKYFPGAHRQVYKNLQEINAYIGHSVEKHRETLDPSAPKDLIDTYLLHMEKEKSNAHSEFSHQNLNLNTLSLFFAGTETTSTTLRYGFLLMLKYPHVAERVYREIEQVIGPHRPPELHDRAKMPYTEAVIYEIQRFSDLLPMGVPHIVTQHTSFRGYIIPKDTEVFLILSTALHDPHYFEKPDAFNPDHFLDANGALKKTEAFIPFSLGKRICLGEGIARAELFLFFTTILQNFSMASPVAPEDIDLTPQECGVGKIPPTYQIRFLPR

CYP2A6 [1] = target: T3, CYP2A6 (Homo sapiens, UniProt P11509); settings: for decrease of 3HC formation: cotinine substrate, CYP2A6 microsomes; for IC50: cotinine 100 μM, rec CYP2A6 microsomes
T3 sequence (P11509 1-494): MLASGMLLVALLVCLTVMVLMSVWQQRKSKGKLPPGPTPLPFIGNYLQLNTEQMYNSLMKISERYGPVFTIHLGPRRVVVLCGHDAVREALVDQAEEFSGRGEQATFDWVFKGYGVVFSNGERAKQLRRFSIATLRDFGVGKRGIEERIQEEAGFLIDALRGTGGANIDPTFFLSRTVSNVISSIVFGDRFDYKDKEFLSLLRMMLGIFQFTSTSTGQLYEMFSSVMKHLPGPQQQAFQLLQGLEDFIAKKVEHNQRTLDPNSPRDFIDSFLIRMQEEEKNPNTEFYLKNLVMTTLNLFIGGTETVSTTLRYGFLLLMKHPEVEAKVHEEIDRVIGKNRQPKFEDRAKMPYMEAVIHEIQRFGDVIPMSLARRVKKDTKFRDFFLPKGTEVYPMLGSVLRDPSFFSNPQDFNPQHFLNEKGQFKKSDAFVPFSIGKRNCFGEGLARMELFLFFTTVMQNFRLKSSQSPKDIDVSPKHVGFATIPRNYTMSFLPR

CYP2A6 [2] = target: T3, CYP2A6; settings: for IC50: nicotine 50 μM, rec CYP2A6 microsomes; for inhibition of nornicotine formation: nicotine substrate, CYP2A6 microsomes
UGT2B17 = target: T4, UGT2B17 (Homo sapiens, UniProt O75795); settings: UGT2B17 microsomes; 3HC as substrate; screening
T4 sequence (O75795 24-530): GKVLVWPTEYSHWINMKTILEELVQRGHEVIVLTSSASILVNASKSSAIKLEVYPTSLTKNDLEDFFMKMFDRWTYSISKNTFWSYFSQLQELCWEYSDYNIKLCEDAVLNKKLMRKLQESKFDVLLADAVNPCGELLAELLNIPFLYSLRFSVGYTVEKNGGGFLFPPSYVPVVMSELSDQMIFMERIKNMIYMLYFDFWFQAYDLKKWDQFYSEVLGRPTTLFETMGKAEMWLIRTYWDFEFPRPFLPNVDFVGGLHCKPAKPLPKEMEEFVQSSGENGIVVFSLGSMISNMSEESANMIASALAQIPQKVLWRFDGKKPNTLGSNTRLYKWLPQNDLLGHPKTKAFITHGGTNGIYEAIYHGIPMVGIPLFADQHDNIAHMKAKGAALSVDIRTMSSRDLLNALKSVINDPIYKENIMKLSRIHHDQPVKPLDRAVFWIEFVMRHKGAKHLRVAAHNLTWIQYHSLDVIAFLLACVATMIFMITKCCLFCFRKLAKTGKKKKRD

[3] = tested on: human liver microsomes (HLM); test: Inhibition of 3HC to 3HC-Gluc formation in human liver microsomes; settings: up to 100 μM CBD
[4] = tested on: human liver microsomes (HLM); test: Inhibition of nicotine to cotinine formation in pooled human liver microsomes; settings: nicotine 500 μM
CYP2C19 = CYP2C19 (Homo sapiens, UniProt P33261); settings: 10 μM inhibitor; cotinine substrate; CYP2C19 microsomes
CYP2A6 [5] = target: T3, CYP2A6; settings: 10 μM inhibitor; cotinine substrate; CYP2A6 microsomes
[6] = human, microsomes from CYP2B6-overexpressing HEK293 cells, pH 7.4, probe nicotine (nornicotine formation)

Chain of CYP2C19 (P33261 whole entry): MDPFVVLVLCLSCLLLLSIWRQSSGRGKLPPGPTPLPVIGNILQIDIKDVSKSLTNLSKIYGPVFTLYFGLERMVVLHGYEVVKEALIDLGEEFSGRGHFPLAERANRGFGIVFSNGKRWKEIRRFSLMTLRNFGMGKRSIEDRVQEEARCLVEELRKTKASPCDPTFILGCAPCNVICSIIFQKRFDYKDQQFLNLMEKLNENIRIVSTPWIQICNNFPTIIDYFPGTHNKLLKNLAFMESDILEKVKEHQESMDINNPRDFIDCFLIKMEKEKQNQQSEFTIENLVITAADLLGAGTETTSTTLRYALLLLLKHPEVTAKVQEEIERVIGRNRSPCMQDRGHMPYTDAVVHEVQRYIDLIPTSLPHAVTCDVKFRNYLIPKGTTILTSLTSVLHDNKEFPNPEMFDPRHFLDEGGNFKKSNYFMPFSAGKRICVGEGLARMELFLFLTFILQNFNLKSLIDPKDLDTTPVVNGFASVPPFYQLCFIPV

C=C(C)[C@@H]1CCC(C)=C[C@H]1c1c(O)cc(CCCCC)cc1O [CBD, cannabidiol]
inhibitory effect on NOX formation (FMO3): No inhibitory effect
IC50 (CYP2B6; IC50, nornicotine formation, nicotine 100 μM, rec CYP2B6 microsomes): 470 ± 77 nM
IC50 (CYP2B6; IC50,u (binding-corrected IC50), nornicotine formation, nicotine 100 μM, rec CYP2B6 microsomes, IC50 × fu,inc): 29 ± 5 nM
IC50 at 30 min (CYP2B6; human, microsomes from CYP2B6-overexpressing HEK293 cells, pH 7.4, probe nicotine 100 μM (nornicotine formation), IC50,u (binding-corrected IC50), nornicotine formation, nicotine 100 μM, rec CYP2B6 microsomes, IC50 × fu,inc): 30 ± 5 nM
inhibition at 30 min, 1 µM (CYP2B6; [6]): 75%
inhibition at 30 min, 10 µM (CYP2B6; [6]): 85%
decrease of 3HC formation (CYP2A6 [1]; 1 μM inhibitor): 55%
decrease of 3HC formation (CYP2A6 [1]; 10 μM inhibitor): 60%
IC50 (CYP2A6 [1]; IC50, 3HC formation): 3400 ± 2300 nM
IC50 (CYP2A6 [1]; IC50,u (binding-corrected IC50), 3HC formation, IC50 × fu,inc): 210 ± 140 nM
IC50 (CYP2A6 [2]; IC50, nornicotine formation): 3700 ± 2200 nM
IC50 (CYP2A6 [2]; IC50,u (binding-corrected IC50), nornicotine formation, IC50 × fu,inc): 230 ± 140 nM
effect on 3HC-Gluc formation (UGT2B17): not inhibited
inhibition of 3HC-Gluc formation [3]: < 45%
IC50 [4]: 10000 ± 2900 nM

C=C(C)[C@@H]1CCC(CO)=C[C@H]1c1c(O)cc(CCCCC)cc1O [7-OH-CBD, 7-hydroxy-cannabidiol]
inhibitory effect on NOX formation (FMO3): No inhibitory effect
inhibition of nornicotine formation (CYP2B6; 1 μM inhibitor): 64%
inhibition of nornicotine formation (CYP2B6; 10 μM inhibitor): 72%
IC50 (CYP2B6; nornicotine formation, nicotine 100 μM, rec CYP2B6 microsomes): 1400 ± 400 nM
IC50 (CYP2B6; read-out: IC50,u (binding-corrected IC50), nornicotine formation, nicotine 100 μM, rec CYP2B6 microsomes, IC50 × fu,inc): 110 ± 30 nM
decrease of 3HC formation (CYP2A6 [1]; 1 μM inhibitor): 45%
decrease of 3HC formation (CYP2A6 [1]; 10 μM inhibitor): 65%
IC50 (CYP2A6 [1]; 3HC formation): 10000 ± 3000 nM
IC50 (CYP2A6 [1]; read-out: IC50,u (binding-corrected IC50), 3HC formation, IC50 × fu,inc): 780 ± 230 nM
inhibition of COX formation (CYP2C19): 15%
inhibition of nornicotine formation (CYP2A6 [2]; 1 μM inhibitor): 55%
inhibition of nornicotine formation (CYP2A6 [2]; 10 μM inhibitor): 70%
IC50 (CYP2A6 [2]; nornicotine formation): 2100 ± 970 nM
IC50 (CYP2A6 [2]; read-out: IC50,u (binding-corrected IC50), nornicotine formation, IC50 × fu,inc): 160 ± 80 nM
inhibition of COX formation (CYP2A6 [5]): 40%
IC50 [4]: 21000 ± 5200 nM
